Reference: patent US20070207987A1, “Androgen Modulators” (WARNER-LAMBERT COMPANY LLC, priority 2004, published 2007)
Read-outs that look alike come from different tables or passages of the source.

How the values were obtained:
patients = settings: after 7 years of treatment; cited from earlier work
hAR = target: T1, hAR (Homo sapiens, UniProt P10275); experiment: Competitive binding of 3H-DHT to hAR extracts; settings: baculovirus/Sf9 hAR extract, 1 nM 3H-DHT, one hour at 4° C., mean of multiple tests
T1 construct: made in house; host or cells: baculovirus/Sf9 insect cells
T1 sequence (P10275 1-920): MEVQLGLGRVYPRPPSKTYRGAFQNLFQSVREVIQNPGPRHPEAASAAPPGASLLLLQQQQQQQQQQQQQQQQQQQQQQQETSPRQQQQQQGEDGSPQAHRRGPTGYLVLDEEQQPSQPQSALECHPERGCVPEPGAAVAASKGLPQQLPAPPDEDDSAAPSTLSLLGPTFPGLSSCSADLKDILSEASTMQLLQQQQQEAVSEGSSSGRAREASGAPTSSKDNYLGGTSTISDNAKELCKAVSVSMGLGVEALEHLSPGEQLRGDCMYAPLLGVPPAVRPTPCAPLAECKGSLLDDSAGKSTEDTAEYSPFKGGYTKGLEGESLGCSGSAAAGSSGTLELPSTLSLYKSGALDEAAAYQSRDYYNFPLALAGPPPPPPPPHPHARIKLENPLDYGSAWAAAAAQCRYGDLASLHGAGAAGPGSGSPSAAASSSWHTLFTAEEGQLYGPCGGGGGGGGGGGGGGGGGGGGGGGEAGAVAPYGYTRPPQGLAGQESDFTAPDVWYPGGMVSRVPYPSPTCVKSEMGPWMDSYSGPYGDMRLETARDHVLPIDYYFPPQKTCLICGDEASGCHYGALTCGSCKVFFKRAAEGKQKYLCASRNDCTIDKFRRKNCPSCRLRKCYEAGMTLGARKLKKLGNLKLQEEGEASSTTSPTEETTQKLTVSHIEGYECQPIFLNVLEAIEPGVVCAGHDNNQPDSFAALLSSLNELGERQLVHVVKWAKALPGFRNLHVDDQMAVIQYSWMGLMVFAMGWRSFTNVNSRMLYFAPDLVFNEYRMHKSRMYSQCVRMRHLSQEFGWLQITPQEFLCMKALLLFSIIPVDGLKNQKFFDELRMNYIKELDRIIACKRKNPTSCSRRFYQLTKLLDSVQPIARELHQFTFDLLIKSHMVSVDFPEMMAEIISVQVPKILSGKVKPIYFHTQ
Method: The compounds of Formula I have affinity for the androgen receptor. […] The description below describes how the assay was carried out.
Competitive binding analysis was performed on baculovirus/Sf9 generated hAR extracts in the presence or absence of different concentrations of test agent and a fixed concentration of ^3H-dihydrotestosterone (^3H-DHT) as tracer. This binding assay method is a modification of a protocol previously described (Liao S., et. al. J. Steroid Biochem. 20:11-17 1984). Briefly, progressively decreasing concentrations of compounds are incubated in the presence of hAR extract (Chang et al. P.N.A.S. Vol. 89, pp. […], 1992), hydroxylapatite, and 1 nM ^3H-DHT for one hour at 4° C. Subsequently, the binding reactions are washed three times to completely remove excess unbound ^3H-DHT. hAR bound ^3H-DHT levels are determined in the presence of compounds (i.e. competitive binding) and compared to levels bound when no competitor is present (i.e. maximum binding). Compound binding affinity to the hAR is expressed as the concentration of compound at which one half of the maximum binding is inhibited. Table I below provides the results that were obtained for selected compounds (reported data is the mean of multiple tests as shown below)

androgen receptor = androgen receptor (Homo sapiens, UniProt P10275); experiment: AR antagonist cell assay (MMTV-luciferase reporter, MDA-MB453-MMTV clone 54-19); format: cell-based
Method: The compounds ability to antagonize the effects of androgen on the androgen receptor were determined in a whole cell assay as described immediately below.
Experimental Procedure for AR Antagonist Cell Assay
This cell line is a stable transfected cell line with MDA-MB453 cell background (a human breast tumor cell line expressing androgen receptor). A MMTV minimal promoter containing ARE was first cloned in front of a firefly luciferase reporter gene. Then the cascade was cloned into transfection vector pUV120puro. Electroporation method was used for transfecting MDA-MB-453 cell. Puromycin resistant stable cell line was selected.
Cell Culture Media and Reagents:
Culture medium: DMEM (high glucose, Gibco cat #: 11960-044), 10% FBS, and 1% L-glutamine
Plating medium: DMEM (phenol red free), 10% charcoal treated HyClone serum, 1% L-glutamine
Assay medium: DMEM (phenol red free), 1% charcoal treated HyClone serum, 1% L-glutamine, and 1% penicillin/streptomycin
3× luciferase buffer: 2% beta-mercaptoethanol, 0.6% ATP, 0.0135% luciferine in cell lysis buffer
• 1. Cells are maintained in culture medium, splitting cells when they reach 80-90% confluence • 2. To test compounds, 10,000 cells/well are plated to opaque 96 cell culture plate in 100 ul/well plating medium, culture for overnight at 37° C. in cell culture incubator • 3. Carefully remove plating medium, then add 80 ul/well of pre-warmed assay medium, add 10 ul/well testing compound (final concentration at) 1000 nM, 200 nM, 40 nM, 8 nM, 1.6 nM, and 0.32 nM), incubate at 37° C. for 30 minutes • 4. Add 10 ul/well freshly prepared DHT (final concentration at 100 pM) to each well, incubate at 37° C. for 17 hr (overnight) • 5.
The results are reported as the mean of multiple tests as described below (the numbers of tests are indicated in the footnote). N.D. denotes that the compound was not tested.

male Syrian hamsters = experiment: Animal model for inhibition of sebum production (hamster ear); format: in vivo, Syrian hamster; settings: five days a week, 4 weeks; for % CE reduction / % WE reduction: vs vehicle control
Method: Luderschmidt et al. describes an animal model for testing whether compounds are capable of modulating sebum secretion. Arch. Derm. Res. 258, 185-191 (1977). This model uses male Syrian hamsters, whose ears contain sebaceous glands. The products of Examples 1 and 2 were screened in this model.
Testing for sebum inhibition was carried out in the following manner. Male Syrian hamsters aged 9 to 10 weeks were introduced into the laboratory environment and acclimated for 2 weeks prior to use in the study. Each group consisted of 5 animals and run in parallel with vehicle and positive controls. Prior to administration, a sufficient quantity each compound was dissolved in 1 mL of a solvent consisting of transcutol, propylene glycol, and ethanol (2/2/6 v/v/v) to achieve the final concentration described in Table III.
Animals were dosed topically twice daily, five days a week, for 4 weeks. Each dose consisted of 25 micro liters of vehicle control or drug. The dose was applied to the ventral surfaces of both the right and left ears. All animals were sacrificed approximately 18-24 hours after the final dose. The right ears were collected from each animal and used for sebum analysis.
The ears were prepped for HPLC analysis in the following manner. One 8 mm distal biopsy punch was taken, just above the anatomical “V” mark in the ear to normalize the sample area. The punch was pulled apart. The ventral biopsy surface (the area where the topical dose was directly applied to the sebaceous glands) was retained for testing and the dorsal surface of the biopsy punch was discarded.
Tissue samples were blown with N2 gas and stored at −80° C. under nitrogen until HPLC analysis. In addition to ear samples, an aliquot of each drug and vehicle (at least 250 ul) was also stored at −80° C. for inclusion in the HPLC analysis.
HPLC analysis was carried out on an extract of the tissue sample. Tissue samples were contacted with 3 ml of solvent (a 4:1 admixture of 2,2,4-trimethylpentane and isopropyl alcohol). The mixture was shaken for 15 minutes and stored overnight at room temperature, protected from light. The next morning 1 milliliter of water was added to the sample and shaken for 15 minutes. The sample was then centrifuged at approximately 1500 rpm for 15 minutes. Two ml of the organic phase (top layer) was transferred to a glass vial, dried at 37° C., under nitrogen, for approximately 1 hour, and then lyophilized for approximately 48 hours. The samples were then removed from the lyophilizer and each vial was reconstituted with 600 μl of solvent A (trimethylpentane/tetrahydrofuran (99:1). The samples were then recapped and vortexed for 5 minutes.
200 μl of each sample was then transferred to a pre-labeled 200 μl HPLC vial with 200 μL glass inserts. The HPLC vials were placed in the autosampler tray for the Agilent 1100 series HPLC unit. The Agilent 1100 HPLC system consisted of a thermostated autosampler, a quarternary pump, a column heater, and an A/D interface module. All components were controlled by Agilent ChemStation software. A Waters Spherisorb S3W 4.6×100 mm analytical column was maintained at 30° C. by the Agilent column heater unit. The HPLC autosampler was programmed to maintain the sample temperature at 20 C. throughout the run.
10 uL of each sample was injected in triplicate into the column. Two solvents were used for the solvent gradient. Solvent A was an admixture of trimethylpentane and tetrahydrofuran (99:1). Solvent B was ethylacetate. The gradient utilized is described in the table below: […]
The Sedex 75 Evaporative Light Scattering Detector (ELSD) was operated at 45° C. with a gain of 5, and N2 pressure maintained at 3.1 bar. Analog signal obtained by the instrument was sent to the Agilent A/D interface module where it was converted to a digital output. The conversion was based on a 10000 mAU/volt set point and the data rate was set at 10 Hz (0.03 min). […]

| Structure (SMILES) | IC50 (hAR; read-out: ARB (IC50)) [nM] | melting point [°C] | IC50 (hAR; ARB (IC50)) [nM] | other results |
| --- | --- | --- | --- | --- |
| NCCCC(O)(P(=O)(O)O)P(=O)(O)O [alendronate] | – | – | – | Increase in spinal BMD (patients): ≤ 11% |
| N#Cc1ccc(OC2CCOC2=O)cc1C(F)(F)F (racemic) [Example 4, (±)-4-(2-Oxo-tetrahydro-furan-3-yloxy)-2-trifluoromethyl-benzonitrile] | 5850 | 120 | – | – |
| CC1(C)COC(=O)[C@@H]1Oc1ccc(C#N)c(C(F)(F)F)c1 [Example 2, (R)-(+)-4-(4,4-Dimethyl-2-oxo-tetrahydro-furan-3-yloxy)-2-trifluoromethyl-benzonitrile] | – | 89.9 to 90.7 | 71 | IC50 (androgen receptor): 47 nM; Sum of WE & WE (male Syrian hamsters; 3% w/v topical twice daily): 171; % CE reduction (male Syrian hamsters; 3% w/v topical twice daily): 79%; % WE reduction (male Syrian hamsters; 3% w/v topical twice daily): 92% |
| CC1(C)COC(=O)C1Oc1ccc(C#N)c(C(F)(F)F)c1 (racemic) [Example 1, (±)-4-(4,4-Dimethyl-2-oxo-tetrahydro-furan-3-yloxy)-2-trifluoromethyl-benzonitrile)] | – | – | 122 | IC50 (androgen receptor): 60 nM; Sum of WE & WE (male Syrian hamsters; 1% w/v topical twice daily): 128; % CE reduction (male Syrian hamsters; 1% w/v topical twice daily): 55%; % WE reduction (male Syrian hamsters; 1% w/v topical twice daily): 73% |
| N#Cc1ccc(OC2CCOC2=O)cc1C(F)(F)F (single isomer, unassigned; (+)) [Example 5, (+)-4-(2-Oxo-tetrahydro-furan-3-yloxy)-2-trifluoromethyl-benzonitrile] | 9800 | 107 to 108 | – | – |
| CC1(C)COC(=O)[C@H]1Oc1ccc(C#N)c(C(F)(F)F)c1 [Example 3, (S)-(−)-4-(4,4-Dimethyl-2-oxo-tetrahydro-furan-3-yloxy)-2-trifluoromethyl-benzonitrile] | – | 83.1 to 84.4 | > 10000 | IC50 (androgen receptor; inhibition of induction by 100 pM DHT, 17 hr, mean of multiple tests, read-out: ARCell (IC50)): > 1000 nM |
| N#Cc1ccc(OC2CCOC2=O)cc1C(F)(F)F (single isomer, unassigned; (-)) [Example 6, (−)-4-(2-Oxo-tetrahydro-furan-3-yloxy)-2-trifluoromethyl-benzonitrile] | 1670 | – | – | – |
